# Results reported in US20060140858A1, “Drug pre-targeting by means of bi-specific antibodies and hapten constructs comprising a carrier peptide and the active agent(s)” (Immunomedics, Inc., priority 2002, published 2006).
# Where two headings read alike, the source gives them in different places. *1 amine or outer side, *2 acyl side, *3 side chain or, on linkers, in order; H or OH if unused. Where a SMILES comes first, the peptide text is derived from it. Side-chain parts run from the residue outwards. [ ]: non-standard residue; d: D form. The star is where a group is joined. HSG = histamine succinyl glycyl group, O=C(CCC(=O)NCC(=O)*)NCCc1c[nH]cn1; DOTA = O=C(O)CN1CCN(CC(=O)O)CCN(CC(=O)*)CCN(CC(=O)O)CC1; NH(2-(imidazol-4-yl)ethyl) = c1ncc(CCN*)[nH]1; Suc = O=C(CCC(=O)[*:2])[*:1]
# B1: Carboxylesterase-DTPA (conjugate)
# chain: HPSAPPVVDTVHGKVLGKFVSLEGFAQPVAVFLGVPFAKPPLGSLRFAPPQPAESWSHVKNTTSYPPMCSQDAVSGHMLSELFTNRKENIPLKFSEDCLYLNIYTPADLTKRGRLPVMVWIHGGGLMVGGASTYDGLALSAHENVVVVTIQYRLGIWGFFSTGDEHSRGNWGHLDQVAALRWVQDNIANFGGDPGSVTIFGESAGGQSVSILLLSPLTKNLFHRAISESGVALLSSLFRKNTKSLAEKIAIEAGCKTTTSAVMVHCLRQKTEEELMEVTLKMKFMALDLVGDPKENTAFLTTVIDGVLLPKAPAEILAEKKYNMLPYMVGINQQEFGWIIPMQMLGYPLSEGKLDQKTATELLWKSYPIVNVSKELTPVATEKYLGGTDDPVKKKDLFLDMLADLLFGVPSVNVARHHRDAGAPTYMYEYRYRPSFSSDMRPKTVIGDHGDEIFSVLGAPFLKEGATEEEIKLSKMVMKYWANFARNGNPNGEGLPQWPAYDYKEGYLQIGATTQAAQKLKDKEVAFWTELWAKEAARPRETEHIEL
# How the values were obtained:
# [1] = mouse, in vivo; cited from earlier work
# [2] = format: in vitro ADME, mouse
# From the text: The peptide was monitored as described above by HPLC.
# GW-39 [3] = system: GW-39; set-up: species or system nude mice; conditions: mouse, in vivo
# Protocol: (§1) Female NCr nude mice Charles River Laboratories, Inc., Fredrick Md. or Taconic, Germantown, N.Y.) approximately 6 weeks of age were implanted subcutaneously with 0.2 ml of this suspension. Two to three weeks after implantation of tumors, animals were injected with the radiolabeled peptide alone, or for pretargeting, with the bsMAb followed 1 to 2 days later with the radiolabeled peptide. […] At the designated times after the peptide injection, animals were anesthetized, bled by cardiac puncture, and then euthanized prior to necropsy. Tissues were removed, weighed and counted by gamma scintillation using appropriate windows for each radionuclide along with standards prepared from the injected materials. When dual isotope counting was used, appropriate backscatter correction was made. GI tissues (stomach, small intestine and large intestine were weighed and counted with their contents. Data are expressed as the percent injected dose per gram tissue (% ID/g) and the ratio of the percentages in the tumor to the normal tissues (T/NT). All values presented in the tables and figures represent the mean and standard deviation of the calculated values with the number of animals used for each study provided therein.
# GW-39 [4] = experiment: Comparison of ^177Lu-IMP-241 and ^111In-IMP-241 pretargeting using hMN-14 × m679 F(ab′)2 bsMAb (24 h bsMAb clearance); format: in vivo, nude mice; conditions: listed as 111In-IMP-241
# Protocol: as §1
# 679 IgG = experiment: Binding of labeled peptide to excess 679 IgG by size exclusion HPLC; set-up: species or system murine; conditions: ^90Y labeled peptide
# Protocol: The ^90Y (˜400 μCi/kit) was diluted to 1 mL in deionized water and added to the lyophilized kits. The kits were heated in a boiling water bath for 15 min, the vials were cooled to room temperature and the labeled peptides were evaluated by reverse phase HPLC (HPLC conditions: Waters Nova-Pak C-18, 8×100 mm RCM column eluted at 3 mL/min with a linear gradient from 100% (0.1% TFA in H2O) to 100% (90% CH3CN, 0.1% TFA, 10% H2O)).
# The ^111In (˜300 μCi/kit) was diluted to 0.5 mL in deionized water and added to the lyophilized kits. The kits were heated in a boiling water bath for 15 min, the vials were cooled and 0.5 mL of 2.56×10^−5 M In in 0.5 M acetate buffer was added and the kits were again heated in the boiling water bath for 15 min. The labeled peptide vials were cooled to room temperature and evaluated by reverse phase HPLC (HPLC conditions: Waters Nova-Pak C-18, 8×100 mm RCM column eluted at 3 mL/min with a linear gradient from 100% (0.1% TFA in H2O) to 100% (90% CH3CN, 0.1% TFA, 10% H2O)).
# The mixture was centrifuged and DTPA was added to a final concentration of 3 mM. After 15 min at room temperature, the final volume was raised to 1.0 mL with 0.1 M sodium acetate, pH 6.5. The amount of unbound isotope was determined by reverse phase HPLC and ITLC developed in saturated sodium chloride solution. […]
# [5] = Immunoreactive fraction of ^99mTc-hMN-14 Fab′; format: binding
# Protocol: (§2) Humanized MN-14 (hMN-14) Fab′-SH was prepared in a similar manner as described previously. ^99mTc-pertechnetate (30 mCi) was added directly to the lyophilized hMN-14-Fab′-SH (1.0 mg) and injected in animals within 30 minutes. This product had 3.0% unbound ^99mTc by ITLC and an immunoreactive fraction of 92%.
# GW-39 tumor = experiment: Tumor/nontumor ratios for directly labeled ^99mTc-hMN-14 Fab′; format: in vivo, nude mice; conditions: 3 h after injection
# Protocol: as §2, §1
# in vivo = experiment: in vivo; set-up: species or system nude mice; conditions: female, NCr nude, mouse, total radioactivity, % ID/g
# Protocol: as §1, with “GW-39, a CEA-producing human colon cancer cell line (See, Goldenberg, D. M. and Hansen, H. […] Female” for “Female”, “suspension.” for “suspension. Two to three weeks after implantation of tumors, animals were injected with the radiolabeled peptide alone, or for pretargeting, with the bsMAb followed 1 to 2 days later with the radiolabeled peptide.”
# GW-39 [6] = experiment: in vivo; set-up: species or system nude mice; conditions: mouse
# Protocol: as §1, with “GW-39, a CEA-producing human colon cancer cell line (See, Goldenberg, D. M. and Hansen, H. […] Female” for “Female”, “suspension.” for “suspension. Two to three weeks after implantation of tumors, animals were injected with the radiolabeled peptide alone, or for pretargeting, with the bsMAb followed 1 to 2 days later with the radiolabeled peptide.”
# [7] = Comparison of ^177Lu-IMP-241 and ^111In-IMP-241 pretargeting using hMN-14 × m679 F(ab′)2 bsMAb (24 h bsMAb clearance); format: in vivo, nude mice; conditions: female, NCr nude, mouse, iv, total radioactivity, read-out: Percent Injected Dose Per Gram; for tissue uptake at 3 h: 3 hour after peptide; for tissue uptake at 24 h: 24 hour after peptide
# Protocol: as §1
# [8] = Enzymatic analysis of carboxylesterase-DTPA conjugate; format: biochemical, rabbit
# Protocol: (§3) After 1 hour of incubation, the mixture is pre-purified on two 5-mL spin-columns (Sephadex G50/80 in 0.1 M sodium phosphate pH 7.3) to remove excess reagent and DMSO. The eluate is purified on a TSK 3000G Supelco column using 0.2 M sodium phosphate pH 6.8 at 4 ml/min. The fraction containing conjugate is concentrated on a Centricon-10™ concentrator, and buffer-exchanged with 0.1 M sodium acetate pH 6.5. […] Incorporation by HPLC and ITLC analyses is 97.7%.
# hMN-14 Fab′×734 Fab′ = experiment: HPLC complexation of In-111 carboxylesterase-DTPA with bi-specific antibody; format: binding; conditions: 20-fold molar excess of hMN-14 Fab′×734 Fab′
# Protocol: as §3
molecule,measurement,setting,value
COc1cccc2c1C(=O)c1c(O)c3c(c(O)c1C2=O)C[C@@](O)(C(=O)CO)C[C@@H]3O[C@H]1C[C@H](N)[C@H](O)[C@H](C)O1 [Doxorubicin],hepatobiliary clearance,[1],~95%
"NC(=O)[C@H](CCCCNC(=O)CNC(=O)CCC(=O)NCCc1cnc[nH]1)NC(=O)[C@@H](Cc1ccc(O)cc1)NC(=O)[C@H](CCCCNC(=O)CNC(=O)CCC(=O)NCCc1cnc[nH]1)NC(=O)[C@H](Cc1ccccc1)NC(=O)CN1CCN(CC(=O)O)CCN(CC(=O)O)CCN(CC(=O)O)CC1 [IMP 241, DOTA-Phe-Lys(HSG)-D-Tys-Lys(HSG)-NH2] ({DOTA}-FK([Gly-Suc-NH(2-(imidazol-4-yl)ethyl)])[dY]K([Gly-Suc-NH(2-(imidazol-4-yl)ethyl)])-NH2)",decomposed in mouse serum,[2],~5%
same,increase of tumor accretion by pretargeting compared to the peptide alone,GW-39 [3],~100 fold
same,Percent Injected Dose Per Gram,"GW-39 [4]; Blood, 3 hour after peptide",1.87 ± 0.97 % ID/g
same,Percent Injected Dose Per Gram,"GW-39 [4]; Kidney, 3 hour after peptide",3.00 ± 0.87 % ID/g
same,Percent Injected Dose Per Gram,"GW-39 [4]; Liver, 3 hour after peptide",0.57 ± 0.24 % ID/g
same,Percent Injected Dose Per Gram,"GW-39 [4]; Lungs, 3 hour after peptide",0.81 ± 0.33 % ID/g
same,Percent Injected Dose Per Gram,"GW-39 [4]; Lungs, 24 hour after peptide",0.24 ± 0.07 % ID/g
same,Percent Injected Dose Per Gram,"GW-39 [4]; Tumor, 3 hour after peptide",8.76 ± 2.31 % ID/g
same,Percent Injected Dose Per Gram,"GW-39 [4]; Tumor, 24 hour after peptide",2.54 ± 1.04 % ID/g
^90Y-IMP-241: IMP 241 divalent HSG-DOTA peptide radiolabeled with ^90Y ({DOTA}-FK(HSG)YK(HSG)-NH2; not fully specified (residue 3); also: DOTA loaded with 90Y),binding to excess 679 IgG by size exclusion HPLC,679 IgG,binding to the antibody
^99mTc-hMN-14 Fab′: humanized MN-14 anti-CEA Fab′ directly radiolabeled with ^99mTc,immunoreactive fraction,[5],92%
same,Tumor/nontumor ratio,GW-39 tumor; Blood,1.0 ± 0.01
same,Tumor/nontumor ratio,GW-39 tumor; Kidney,0.02 ± 0.001
same,Tumor/nontumor ratio,GW-39 tumor; Liver,0.2 ± 0.02
same,Tumor/nontumor ratio,GW-39 tumor; Lungs,0.7 ± 0.1
same,Tumor/nontumor ratio,GW-39 tumor; Spleen,0.9 ± 0.4
"NC(=O)[C@H](CCCCNC(=O)CNC(=O)CCC(=O)NCCc1cnc[nH]1)NC(=O)[C@@H](Cc1ccc(O)cc1)NC(=O)[C@H](CCCCNC(=O)CNC(=O)CCC(=O)NCCc1cnc[nH]1)NC(=O)[C@H](Cc1ccccc1)NC(=O)CN1CCN(CC(=O)O)CCN(CC(=O)O)CCN(CC(=O)O)CC1 [^177Lu-IMP-241, metal not drawn] ({DOTA}-FK([Gly-Suc-NH(2-(imidazol-4-yl)ethyl)])[dY]K([Gly-Suc-NH(2-(imidazol-4-yl)ethyl)])-NH2)",tissue uptake at 48 h,in vivo,0.94 ± 0.2 %ID/g
same,decrease in kidneys compared to the level seen at 24 h,GW-39 [6],~45%
same,tissue uptake at 3 h,"[7]; blood, Blood",1.48 ± 0.19 %ID/g
same,tissue uptake at 24 h,"[7]; blood, Blood",0.36 ± 0.05 %ID/g
same,tissue uptake at 3 h,"[7]; kidney, Kidney",3.61 ± 0.43 %ID/g
same,tissue uptake at 24 h,"[7]; kidney, Kidney",0.18 ± 0.03 %ID/g
same,tissue uptake at 3 h,"[7]; liver, Liver",0.46 ± 0.08 %ID/g
same,tissue uptake at 24 h,"[7]; liver, Liver",0.17 ± 0.04 %ID/g
same,tissue uptake at 3 h,"[7]; lungs, Lungs",0.64 ± 0.12 %ID/g
same,tissue uptake at 24 h,"[7]; lungs, Lungs",0.17 ± 0.02 %ID/g
same,tissue uptake at 3 h,"[7]; spleen, Spleen",0.36 ± 0.04 %ID/g
same,tissue uptake at 24 h,"[7]; spleen, Spleen",0.29 ± 0.07 %ID/g
same,tissue uptake at 3 h,"[7]; tumor, Tumor",9.71 ± 2.49 %ID/g
same,tissue uptake at 24 h,"[7]; tumor, Tumor",2.59 ± 0.3 %ID/g
B1,enzymatic activity,[8],115 enzyme units/mg protein
same,complexation with bi-specific antibody (HPLC),hMN-14 Fab′×734 Fab′,completely complexed
